From ChEMBL document CHEMBL1128627, “Photoactivatable analogues of a Substance P non-peptidic antagonist, for probing the antagonist binding site of the NK1 receptor” (Bioorg Med Chem Lett, 1995) come the findings set out here.

In this experiment the target is Substance-P receptor (Homo sapiens, UniProt P25103). The experiment is described as follows: In vitro binding affinity against human NK1 receptor expressed in CHO cells using [3H]-substance P as radioligand. The experiment is classed as cell-based.
Sequence of Substance-P receptor (P25103 whole entry): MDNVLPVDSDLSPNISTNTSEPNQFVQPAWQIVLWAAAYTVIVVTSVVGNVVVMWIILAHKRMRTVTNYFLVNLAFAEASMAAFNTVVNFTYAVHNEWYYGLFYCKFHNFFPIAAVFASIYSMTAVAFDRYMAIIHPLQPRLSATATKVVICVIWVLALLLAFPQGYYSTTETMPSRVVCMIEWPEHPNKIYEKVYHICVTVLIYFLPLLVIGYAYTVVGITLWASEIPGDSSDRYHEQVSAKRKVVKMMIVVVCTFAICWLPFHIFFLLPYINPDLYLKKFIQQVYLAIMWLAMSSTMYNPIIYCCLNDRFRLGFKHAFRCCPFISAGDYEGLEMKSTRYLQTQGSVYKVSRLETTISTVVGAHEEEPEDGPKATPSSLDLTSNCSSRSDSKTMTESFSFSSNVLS

One may read the Ki as the dissociation constant of the complex between target and ligand, obtained from inhibition or displacement. The low end stands for a stronger hold on the target, the high end for a looser hold on the target. Take `COc1ccc(C(=O)c2ccccc2)cc1CN[C@H]1CCCN[C@H]1c1ccccc1`: the Ki is 0.398 nM.

In turn, `COc1ccc(C2(C(F)(F)F)N=N2)cc1CN[C@H]1CCCN[C@H]1c1ccccc1` showed a Ki of 0.794 nM.
